For this assay, the target named is T1, full-length SARM1 (FL-SARM1) (Homo sapiens, UniProt Q6SZW1).
T1 sequence (Q6SZW1 28-724): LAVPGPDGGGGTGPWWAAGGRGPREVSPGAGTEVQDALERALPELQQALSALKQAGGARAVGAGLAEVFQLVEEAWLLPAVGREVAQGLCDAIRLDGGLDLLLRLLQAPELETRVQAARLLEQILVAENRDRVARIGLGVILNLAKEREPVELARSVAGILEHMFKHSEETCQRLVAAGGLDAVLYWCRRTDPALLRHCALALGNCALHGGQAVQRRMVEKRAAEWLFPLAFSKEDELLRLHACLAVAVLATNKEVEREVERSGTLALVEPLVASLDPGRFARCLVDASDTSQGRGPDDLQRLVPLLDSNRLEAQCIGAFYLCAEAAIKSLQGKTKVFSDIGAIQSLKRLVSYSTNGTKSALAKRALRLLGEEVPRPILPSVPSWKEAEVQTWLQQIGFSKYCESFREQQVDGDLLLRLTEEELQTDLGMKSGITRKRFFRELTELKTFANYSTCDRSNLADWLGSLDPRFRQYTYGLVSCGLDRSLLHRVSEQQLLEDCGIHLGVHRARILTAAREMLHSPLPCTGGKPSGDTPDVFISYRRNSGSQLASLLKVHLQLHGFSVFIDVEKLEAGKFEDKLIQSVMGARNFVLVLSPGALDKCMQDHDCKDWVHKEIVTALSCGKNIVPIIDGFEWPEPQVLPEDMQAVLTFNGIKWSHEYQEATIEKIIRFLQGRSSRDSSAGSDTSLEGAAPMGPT
The assay can be described thus: FL-SARM1 cellular lysate assay (NAD/NADH-Glo detection of remaining NAD+, NMN-activated).

[1] abbreviates: Activity (IC50 class), 11 point curve.
Setting [2] is: Activity (μM) (IC50), 11 point curve.
Setting [3] is: read-out: Activity (IC50 class), 11 point curve.

This note sets out measurements from patent US20250171462A1 (NICO Therapeutics, Inc., priority 2022, published 2025).

Like-named read-outs stand apart in the source and are kept apart here.

Experimental: Preparation of full-length SARM1 (FL-SARM1) lysate: HEK293T cells (ATCC: CRL-3216) were grown on 150 mm TC-treated dishes to 80-90% confluency in complete DMEM (DMEM (Thermo Fisher: 11965175) supplemented with 10% HI—FBS (VWR: 10802-772), 1× Pen/Strep (Thermo Fisher: 15140122), 1×NEAA (Thermo Fisher: 1140050), 1× glutamax (Thermo Fisher: 35050061), and 1 mM sodium pyruvate (Thermo Fisher: 11360070)) at 37° C. and 5% CO2. One hour prior to transfection, the media was replaced with fresh, 37° C. complete DMEM (20 mL per one 150 mm dish) supplemented with additional 10 mM glucose (Alfa Aesar AAJ60067EQE). Per one 150 mm dish, 30 μg FL-SARM1 (SEQ. ID. 1; cloned in-house) plasmid was dissolved in 1 mL DMEM at ambient temperature and were mixed by inverting the tube 8-10 times. 90 μL of GenJet™ in vitro DNA transfection reagent (Ver2) was dissolved in 1 mL DMEM at ambient temperature and were mixed by inverting the tube 8-10 times. The plasmid and transfection agent solutions were combined, mixed by 8-10 inversions and incubated for 10 minutes at ambient temperature. 2 mL of this transfection mixture was added to each dish containing HEK293T cells as prepared above followed by a gentle mixing of 4-5 horizontal rotations. The dishes were incubated at 37° C. and 5% CO2 for 24 h. The dishes were removed from the incubator, the medium was aspirated and the cells were scraped off using cell scrapers in ice-cold 1×PBS (5 mL/dish, Thermo Fisher Scientific 10010023). The collected cells were centrifuged at 300 g for 5 minutes at 4° C. The supernatant was aspirated and the pellet was frozen at −80° C. until needed. The cell pellet from 30 dishes was dissolved in 30 mL 1×PBS supplemented with 4 tablets of Complete, Mini EDTA-free protease inhibitor cocktail at 4° C. This mixture was sonicated on ice for 10 minutes at 50% amplitude with a 1 second on/1 second off interval using a Model 120 sonicator (Thermo Fisher Scientific, FB120110). The lysate was centrifuged at 16000 g for 10 minutes at 4° C.
To a white 384-well Proxiplate (PerkinElmer, PE-6008280) was added 50 nL/well of a DMSO solution containing test compounds followed by 7.5 μL/well of a 0.067 mg/mL solution of SARMi cellular lysate in reaction buffer (DPBS containing CHAPSO (0.1%) and fatty acid free BSA (0.032%)). The plate was centrifuged for 1 minute at 1000 RPM and then placed in an incubator at 23° C. for 15 minutes. To the wells were added 2.5 μL/well of a solution containing 40 M NAD^+ and 4 mM nicotinamide mononucleotide (NMN) in reaction buffer. The plate was centrifuged for 1 min at 1000 RPM, the plate was sealed and placed in an incubator at 23° C. for 3.5 hours before adding 3.5 μL/well of NAD/NADH-Glo™ solution (preparation as described by Promega using the extended detection protocol). The plate was centrifuged for 1 minute at 1000 RPM and then incubated at 23° C. for 20 minutes. 1 μL/well of a 3.625 mM solution of menadione in DMSO was added and the plate was centrifuged for 1 minute at 1000 RPM. Relative light units (RLU) were recorded using an Envision plate reader at a height of 6.5 mm.
IC50 values were calculated from an 11 point curve using ½ log dilutions using a four-parameter logistic regression curve fit.

The term IC50 denotes the concentration that gives 50% inhibition. On to `O=C(Nc1ccc(F)c(-c2ccc(F)cn2)c1)N1C2CCCC1C2` [Example 35, N-(4-fluoro-3-(5-fluoropyridin-2-yl)phenyl)-6-azabicyclo[3.1.1]heptane-6-carboxamide], for which the half-inhibitory concentration (IC50) was 1 to 10 µM under setting [1] and 3.5 µM under setting [2].
`Cc1ccc(NC(=O)N2C[C@@H]3CCCC[C@@H]32)cc1-c1ncc(F)cn1` (racemic) [Example 226, N-[3-(5-fluoropyrimidin-2-yl)-4-methylphenyl]-7-azabicyclo[4.2.0]octane-7-carboxamide] came in with an IC50 under setting [1] of 1 to 10 µM and an IC50 under setting [2] of 1.5 µM.
Consider `Cc1cc(F)c(NC(=O)N2[C@@H]3C[C@@H](C)C[C@H]2C3)cc1-c1cncnn1` [Example 221, cis-N-[2-fluoro-4-methyl-5-(1,2,4-triazin-6-yl)phenyl]-3-methyl-6-azabicyclo[3.1.1]heptane-6-carboxamide], for which the IC50 under setting [2] stood at 0.6 µM and the IC50 under setting [3] was 0.0001 to 1 µM.
In the same order, the values of `Cc1ccc(NC(=O)N2C3CCC2c2c(F)cncc23)cc1-c1ccccn1` (centres unmarked) [Example 15, 4-fluoro-N-(4-methyl-3-(pyridin-2-yl)phenyl)-5,6,7,8-tetrahydro-5,8-epiminoisoquinoline-9-carboxamide] are 0.4 µM and 0.0001 to 1 µM.
In the same order, the values of `O=C(Nc1ccc(Cl)c(-c2ccc(F)cn2)c1)N1C2CCCC1C2` [Example 46, N-(4-chloro-3-(5-fluoropyridin-2-yl)phenyl)-6-azabicyclo[3.1.1]heptane-6-carboxamide] are 0.2 µM and 0.0001 to 1 µM.
With `Cc1ccc(NC(=O)N2C3CCC2[C@H](C)C3)cc1-c1ncc(F)cn1` (single isomer, unassigned) [Example 197, trans-N-[3-(5-fluoropyrimidin-2-yl)-4-methylphenyl]-2-methyl-7-azabicyclo[2.2.1]heptane-7-carboxamide], the IC50 under setting [2] came to 0.4 µM and the IC50 under setting [3] fell in the range of 0.0001 to 1 µM.
With `Cc1ccc(NC(=O)N2C3CCC2[C@@H](C)C3)cc1-c1ncc(F)cn1` (single isomer, unassigned) [Example 195, cis-N-(3-(5-fluoropyrimidin-2-yl)-4-methylphenyl)-2-methyl-7-azabicyclo[2.2.1]heptane-7-carboxamide], the IC50 runs as follows: under setting [2], 0.3 µM; under setting [3], 0.0001 to 1 µM.
Turning to `Cc1ccc(NC(=O)[C@H]2C[C@H]3C[C@H]3N2c2nccnn2)cc1-c1ncc(F)cn1` [Example 262, (1R,3R,5R)-N-(3-(5-fluoropyrimidin-2-yl)-4-methylphenyl)-2-(1,2,4-triazin-3-yl)-2-azabicyclo[3.1.0]hexane-3-carboxamide], the IC50 is 1 to 10 µM under setting [1] and 2.5 µM under setting [2].
Consider `Cc1ccc(NC(=O)N2C3C[C@H](C)C[C@@H]2C3)cc1-c1ncc(F)cn1` [Example 51, cis-N-(3-(5-fluoropyrimidin-2-yl)-4-methylphenyl)-3-methyl-6-azabicyclo[3.1.1]heptane-6-carboxamide], for which it took 0.01 µM to reach half-maximal inhibition under setting [2] (IC50) and the IC50 under setting [3] lay within 0.0001 to 1 µM.
Regarding `Cc1ccc(NC(=O)N2C3C[C@@H](C)C[C@H]2C3)cc1-c1nncc(C(F)(F)F)n1` [Example 184, cis-3-methyl-N-(4-methyl-3-(5-(trifluoromethyl)-1,2,4-triazin-3-yl)phenyl)-6-azabicyclo[3.1.1]heptane-6-carboxamide], the IC50 reads like this: under setting [2], 0.07 µM; under setting [3], 0.0001 to 1 µM.
In the case of `Cc1ccc(NC(=O)CC2CCC2)cc1-c1ccccn1` [Example 168, 2-cyclobutyl-N-(4-methyl-3-pyridin-2-ylphenyl)acetamide], the IC50 reads like this: under setting [1], 1 to 10 µM; under setting [2], 1.3 µM.
For the compound `C[C@@H]1C[C@@H]2C[C@H](C1)N2C(=O)Nc1cc(-c2cccnn2)c(C(F)(F)F)cc1F` [Example 245, cis-N-[2-fluoro-5-pyridazin-3-yl-4-(trifluoromethyl)phenyl]-3-methyl-6-azabicyclo[3.1.1]heptane-6-carboxamide], the IC50 is, setting by setting: under setting [2], 0.2 µM; under setting [3], 0.0001 to 1 µM.
Regarding `CCO[C@H]1CC2C[C@H](C1)N2C(=O)Nc1ccc(C)c(-c2ccccn2)c1` [Example 79, trans-3-ethoxy-N-(4-methyl-3-(pyridin-2-yl)phenyl)-6-azabicyclo[3.1.1]heptane-6-carboxamide], the IC50 runs as follows: under setting [1], 1 to 10 µM; under setting [2], 2.8 µM.
Consider `Cc1c(Cl)cc(NC(=O)N2C3CCCC2C3)cc1-c1ccccn1` [Example 77, N-(3-chloro-4-methyl-5-(pyridin-2-yl)phenyl)-6-azabicyclo[3.1.1]heptane-6-carboxamide], for which the IC50 is 0.8 µM under setting [2] and 0.0001 to 1 µM under setting [3].
The compound `Cc1cc(NC(=O)N2C3CCCC2C3)cc(-c2ccccn2)c1C` [Example 71, N-(3,4-dimethyl-5-(pyridin-2-yl)phenyl)-6-azabicyclo[3.1.1]heptane-6-carboxamide] showed an IC50 under setting [1] greater than 10 µM and an IC50 under setting [2] of 10.9 µM.
On to `Cc1ccc(NC(=O)N2C3CC2CN(C(C)C(F)(F)F)C3)cc1-c1ccccn1` (centres unmarked) [Example 2, N-(4-Methyl-3-(pyridin-2-yl)phenyl)-3-(1,1,1-trifluoropropan-2-yl)-3,6-diazabicyclo[3.1.1]heptane-6-carboxamide], for which the IC50 under setting [2] is 0.7 µM and the IC50 under setting [3] is 0.0001 to 1 µM.
For `Cc1cc(F)c(NC(=O)N2C3CCCC2C3)cc1-c1ncncn1` [Example 181, N-(2-fluoro-4-methyl-5-(1,3,5-triazin-2-yl)phenyl)-6-azabicyclo[3.1.1]heptane-6-carboxamide], the IC50 reads like this: under setting [1], 1 to 10 µM; under setting [2], 7 µM.
In the same order, the values of `O=C(Nc1ccc(C2CC2)c(-c2ccc(F)cn2)c1)[C@@H]1CC1(F)F` [Example 155, (1S)-N-[4-cyclopropyl-3-(5-fluoropyridin-2-yl)phenyl]-2,2-difluorocyclopropane-1-carboxamide] are 1 to 10 µM and 3.5 µM.
Take `Cc1ccc(NC(=O)N2C3C[C@@H](C)C[C@H]2C3)cc1-c1cc(Cl)cnn1` [Example 216, cis-N-(3-(5-chloropyridazin-3-yl)-4-methylphenyl)-3-methyl-6-azabicyclo[3.1.1]heptane-6-carboxamide]: the IC50 under setting [2] was found to be 0.01 µM and the IC50 under setting [3] is 0.0001 to 1 µM.
With `Cc1ccc(NC(=O)N2C3CCCC2C3)cc1-c1cccnn1` [Example 54, N-(4-methyl-3-(pyridazin-3-yl)phenyl)-6-azabicyclo[3.1.1]heptane-6-carboxamide], the 50% inhibitory concentration (IC50) is 0.5 µM under setting [2] and 0.0001 to 1 µM under setting [3].
Consider `CC[C@H]1C[C@H]1C(=O)Nc1ccc(C)c(-c2ccccn2)c1` (single isomer, unassigned) [Example 109, cis-2-ethyl-N-(4-methyl-3-pyridin-2-ylphenyl)cyclopropane-1-carboxamide], for which the 50% inhibitory concentration (IC50) runs as follows: under setting [2], 0.3 µM; under setting [3], 0.0001 to 1 µM.
On to `Cc1ccc(NC(=O)N2C3CC2CN(c2ncccn2)C3)cc1-c1ccccn1` [Example 72, N-(4-methyl-3-(pyridin-2-yl)phenyl)-3-(pyrimidin-2-yl)-3,6-diazabicyclo[3.1.1]heptane-6-carboxamide], for which the IC50 was 1 to 10 µM under setting [1] and 1.2 µM under setting [2].
For `Cc1ccc(NC(=O)N2C3C[C@@H](C)C[C@H]2C3)cc1-c1nccnn1` [Example 215, cis-3-methyl-N-(4-methyl-3-(1,2,4-triazin-3-yl)phenyl)-6-azabicyclo[3.1.1]heptane-6-carboxamide], the IC50 by setting is: under setting [2], 0.03 µM; under setting [3], 0.0001 to 1 µM.
Take `CC(=O)N1C[C@H](c2ccccc2)C[C@@H]1C(=O)Nc1ccc(C)c(-c2ncc(F)cn2)c1` [Example 321]: the IC50 runs as follows: under setting [1], greater than 10 µM; under setting [2], 24 µM.
Regarding `Cc1ccc(NC(=O)C2CC3CCC2C3)cc1-c1ccccn1` (centres unmarked) [Example 147, N-(4-methyl-3-pyridin-2-ylphenyl)bicyclo[2.2.1]heptane-2-carboxamide], the IC50 is 0.2 µM under setting [2] and 0.0001 to 1 µM under setting [3].
In the same order, the values of `CCOC(C)[C@@]12CC(C[C@@H](C)C1)N2C(=O)Nc1ccc(C)c(-c2ncc(F)cn2)c1` (single isomer, unassigned) [Example 188, cis-1-(1-ethoxyethyl)-N-(3-(5-fluoropyrimidin-2-yl)-4-methylphenyl)-3-methyl-6-azabicyclo[3.1.1]heptane-6-carboxamide] are 0.003 µM and 0.0001 to 1 µM.
Turning to `Cc1cc(F)c(NC(=O)N2[C@@H]3C[C@@H](C)C[C@H]2C3)cc1-c1cccnn1` [Example 256, cis-N-(2-fluoro-4-methyl-5-pyridazin-3-ylphenyl)-3-methyl-6-azabicyclo[3.1.1]heptane-6-carboxamide], the IC50 was 0.1 µM under setting [2] and 0.0001 to 1 µM under setting [3].
As to `Cc1ccc(NC(=O)N2C3C[C@@H]2CC[C@H]3C)cc1-c1ccccn1` (single isomer, unassigned) [Example 49, trans-2-methyl-N-(4-methyl-3-(pyridin-2-yl)phenyl)-6-azabicyclo[3.1.1]heptane-6-carboxamide], the IC50 runs as follows: under setting [2], 0.2 µM; under setting [3], 0.0001 to 1 µM.
